Here are results for three compounds from PubChem BioAssay AID1963840 (Molecular Pharmacology Branch, DTP, NCI, 2024).
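Also: spheroids exposed to compounds for seven days.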

For one assay, the system named is 695427-040-R-J1-PDC complex spheroid viability. The assay is described as follows: Anticancer human tumor 695427-040-R-J1-PDC patient-derived colon adenocarcinoma cell line growth inhibition [POLQ]. The conditions noted are these: second compound 3.16 µM; first compound 0.1 µM; active compounds read low. The method, then: Multicellular complex tumor spheroid response to Polymerase (POL) inhibitors (novobiocin, ART-558, RP6685) in combination with a variety of drugs and investigational agents in selected tumor cell lines
The POL inhibitors (novobiocin, ART-558, and RP6685) were evaluated both individually and in combination with standard of care and investigational anticancer small molecules within a complex spheroid model of solid tumors. . Complex spheroids include a stromal component modeled by human endothelial cells (HUVEC) and fibroblasts modeled by human mesenchymal stem cells (MSCs). The concentration ranges selected for each drug and investigational agent were based upon clinically achievable concentrations if the clinical Cmax of the agent was known.
Compounds. The drugs and investigational agents: novobiocin (NSC847541), ART-558 (NSC835418), RP-6685 (NSC848927), peposertib (NSC802822), ceralasertib (NSC780249), elimusertib (NSC800525), camonsertib (NSC841442), AZD-1390 (NSC803789), olaparib (NSC753686), talazoparib (NSC767125), rucaparib (NSC756644), sotorasib (NSC818433), MRTX-1133 (NSC836407), SN-38 (NSC673596), topotecan (NSC609699), epotoside (NSC141540), doxorubicin (NSC123127), gemcitabine (NSC613327), 5-fluorouracil (NSC19893), paclitaxel (NSC125973), vemurafenib (NSC761431), MSA-2 (NSC828583), SN-011 (NSC837082), adavosertib (NSC754352), prexasertib (NSC758257), carboplatin (NSC241240) and oxaliplatin (NSC266046), were obtained from the National Cancer Institute (NCI) Developmental Therapeutics Program Chemical Repository (21). The FDA-approved anticancer drug set is available from the Developmental Therapeutics Program at https://dtp.cancer.gov/organization/dscb/obtaining/. […] The stock solutions were prepared in dimethyl sulfoxide (DMSO, Sigma-Aldrich, St. Louis, MO, cat. D2650), except for the platinum compounds which were prepared in saline (Quality Biological, Gaithersburg, MD, cat. 114-055-101), at 800-fold the tested concentration and stored at -70 degrees C prior to their use. All drugs and investigational agents were tested over a range starting from a high concentration at or near the clinical Cmax and decreasing in half-log increments. If the clinical Cmax for an agent had not been determined, the highest concentration tested was 10 microM, except for SN-38, which was tested at a high concentration of 1 microM.
Cell Culture. All cells were maintained in an incubator at 37 degrees C and 5% CO2 with 95% humidity. The PDC lines were cultured according to standard operating procedures established by the NCI PDMR (https://pdmr.cancer.gov). Table 3 of the manuscript, lists the cell lines along with the number of the three cell types plated to form the mct-spheroids and media for tumor cell growth. After thawing, all PDC lines, except 997537-175-T-J1-PDC and 415267-285-R-J2-PDC, were cultured in Matrigel-coated flasks prepared with a working solution of 1X Ham's F-12 nutrient mix, without supplementation (Thermo Fisher Scientific, cat. 11765054), 100 U/mL penicillin-streptomycin (Thermo Fisher Scientific, cat. 15140122), and 2.5% Matrigel (Corning Inc., Corning, NY, cat. 354248) for the first three passages. The two PDC lines 997537-175-T-J1-PDC and 415267-285-R-J2-PDC were cultured on uncoated flasks. The 857933-349-R-J2-PDC line was cultured in 6C/Colon 1B media containing advanced DMEM/F-12 (Thermo Fisher Scientific, cat. 12634028), 10 mM HEPES (Thermo Fisher Scientific, cat. 15630080), 1X GlutaMAX supplement (Thermo Fisher Scientific, cat. 35050061), 0.1 mg/mL primocin (InvivoGen, San Diego, CA, cat. ant-pm-2), 10% defined fetal bovine serum, heat inactivated (HyClone Laboratories Inc., Logan, UT, cat. SH30070.03HI), 50% L-WRN conditioned media (ATCC, cat. CRL-3276), 1.25 mM N-Acetyl-L-cysteine (Sigma-Aldrich, cat. A9165), 10 mM nicotinamide (Sigma-Aldrich, cat. N0636), 1X B-27 supplement (Thermo Fisher Scientific, cat. 17504044), 1X N-2 supplement (Thermo Fisher Scientific, cat. […]
As for `O=C(Nc1ccc(O)c(NS(=O)(=O)c2ccc(F)cc2)c1)c1ccc(-c2ccccc2)cc1` + Cc1cccc(N(C)C(=O)C2C(O)CCN2c2nc(C)cc(C(F)(F)F)c2C#N)c1, the viability, T/C (as a rule, the result in the treated group divided by that in the control group, in per cent) is 101%.
In the case of `Nc1ccn(C2OC(CO)C(O)C2(F)F)c(=O)n1` (configuration not stated) + Nc1ccc(C#CCN(C(=O)Cc2ncc(C(F)(F)F)cc2C(F)(F)F)c2ccc(F)cc2)nn1, the viability, T/C was 93.3%.

The same assay, now with this note: second compound 3.16 µM; first compound 0.316 µM; active compounds read low.
Regarding `COc1cc2cc(C(=O)CCC(=O)O)sc2cc1OC` + Cc1cccc(N(C)C(=O)C2C(O)CCN2c2nc(C)cc(C(F)(F)F)c2C#N)c1, the viability, T/C was 102%.
With `O=C(Nc1ccc(O)c(NS(=O)(=O)c2ccc(F)cc2)c1)c1ccc(-c2ccccc2)cc1` + Cc1cccc(N(C)C(=O)C2C(O)CCN2c2nc(C)cc(C(F)(F)F)c2C#N)c1, the viability, T/C was 93.5%.
For the compound `Nc1ccn(C2OC(CO)C(O)C2(F)F)c(=O)n1` (configuration not stated) + Nc1ccc(C#CCN(C(=O)Cc2ncc(C(F)(F)F)cc2C(F)(F)F)c2ccc(F)cc2)nn1, the viability, T/C is 85.1%.

The assay is the same for the next values; noted with them: second compound 3.16 µM; first compound 1 µM; active compounds read low.
Turning to `COc1cc2cc(C(=O)CCC(=O)O)sc2cc1OC` + Cc1cccc(N(C)C(=O)C2C(O)CCN2c2nc(C)cc(C(F)(F)F)c2C#N)c1, the viability, T/C was 101%.
Same read-out and setting: to `O=C(Nc1ccc(O)c(NS(=O)(=O)c2ccc(F)cc2)c1)c1ccc(-c2ccccc2)cc1` + Cc1cccc(N(C)C(=O)C2C(O)CCN2c2nc(C)cc(C(F)(F)F)c2C#N)c1 belongs 103%; to `Nc1ccn(C2OC(CO)C(O)C2(F)F)c(=O)n1` (configuration not stated) + Nc1ccc(C#CCN(C(=O)Cc2ncc(C(F)(F)F)cc2C(F)(F)F)c2ccc(F)cc2)nn1, 84.8%.

Staying with this assay, now noted: second compound 3.16 µM; first compound 3.16 µM; active compounds read low.
Regarding `COc1cc2cc(C(=O)CCC(=O)O)sc2cc1OC` + Cc1cccc(N(C)C(=O)C2C(O)CCN2c2nc(C)cc(C(F)(F)F)c2C#N)c1, the viability, T/C is 97.9%.
The same measure, in the same setting: to `O=C(Nc1ccc(O)c(NS(=O)(=O)c2ccc(F)cc2)c1)c1ccc(-c2ccccc2)cc1` + Cc1cccc(N(C)C(=O)C2C(O)CCN2c2nc(C)cc(C(F)(F)F)c2C#N)c1 belongs 103%.
Same read-out and setting: the same measure for `Nc1ccn(C2OC(CO)C(O)C2(F)F)c(=O)n1` (configuration not stated) + Nc1ccc(C#CCN(C(=O)Cc2ncc(C(F)(F)F)cc2C(F)(F)F)c2ccc(F)cc2)nn1: 83.7%.

The same assay, now with this note: second compound 3.16 µM; first compound 10 µM; active compounds read low.
For `COc1cc2cc(C(=O)CCC(=O)O)sc2cc1OC` + Cc1cccc(N(C)C(=O)C2C(O)CCN2c2nc(C)cc(C(F)(F)F)c2C#N)c1, the viability, T/C is 95.4%.
Consider `O=C(Nc1ccc(O)c(NS(=O)(=O)c2ccc(F)cc2)c1)c1ccc(-c2ccccc2)cc1` + Cc1cccc(N(C)C(=O)C2C(O)CCN2c2nc(C)cc(C(F)(F)F)c2C#N)c1, for which the viability, T/C was 93.6%.
Still for that read-out and setting: the same measure for `Nc1ccn(C2OC(CO)C(O)C2(F)F)c(=O)n1` (configuration not stated) + Nc1ccc(C#CCN(C(=O)Cc2ncc(C(F)(F)F)cc2C(F)(F)F)c2ccc(F)cc2)nn1: 65.8%.

The same assay, now with this note: second compound 10 µM; first compound 0.0316 µM; active compounds read low.
As for `COc1cc2cc(C(=O)CCC(=O)O)sc2cc1OC` + Cc1cccc(N(C)C(=O)C2C(O)CCN2c2nc(C)cc(C(F)(F)F)c2C#N)c1, the viability, T/C was 94.3%.
On to `O=C(Nc1ccc(O)c(NS(=O)(=O)c2ccc(F)cc2)c1)c1ccc(-c2ccccc2)cc1` + Cc1cccc(N(C)C(=O)C2C(O)CCN2c2nc(C)cc(C(F)(F)F)c2C#N)c1, for which the viability, T/C is 103%.
Still for that read-out and setting: the same measure for `Nc1ccn(C2OC(CO)C(O)C2(F)F)c(=O)n1` (configuration not stated) + Nc1ccc(C#CCN(C(=O)Cc2ncc(C(F)(F)F)cc2C(F)(F)F)c2ccc(F)cc2)nn1: 92.5%.

The assay is the same for the next values; noted with them: second compound 10 µM; first compound 0.1 µM; active compounds read low.
Turning to `COc1cc2cc(C(=O)CCC(=O)O)sc2cc1OC` + Cc1cccc(N(C)C(=O)C2C(O)CCN2c2nc(C)cc(C(F)(F)F)c2C#N)c1, the viability, T/C was 82.2%.
In the case of `O=C(Nc1ccc(O)c(NS(=O)(=O)c2ccc(F)cc2)c1)c1ccc(-c2ccccc2)cc1` + Cc1cccc(N(C)C(=O)C2C(O)CCN2c2nc(C)cc(C(F)(F)F)c2C#N)c1, the viability, T/C is 92.2%.
The same measure, in the same setting: to `Nc1ccn(C2OC(CO)C(O)C2(F)F)c(=O)n1` (configuration not stated) + Nc1ccc(C#CCN(C(=O)Cc2ncc(C(F)(F)F)cc2C(F)(F)F)c2ccc(F)cc2)nn1 belongs 86.7%.

Still in this assay, the particulars now being: second compound 10 µM; first compound 0.316 µM; active compounds read low.
For the compound `COc1cc2cc(C(=O)CCC(=O)O)sc2cc1OC` + Cc1cccc(N(C)C(=O)C2C(O)CCN2c2nc(C)cc(C(F)(F)F)c2C#N)c1, the viability, T/C is 101%.
In the case of `O=C(Nc1ccc(O)c(NS(=O)(=O)c2ccc(F)cc2)c1)c1ccc(-c2ccccc2)cc1` + Cc1cccc(N(C)C(=O)C2C(O)CCN2c2nc(C)cc(C(F)(F)F)c2C#N)c1, the viability, T/C was 96.1%.
With `Nc1ccn(C2OC(CO)C(O)C2(F)F)c(=O)n1` (configuration not stated) + Nc1ccc(C#CCN(C(=O)Cc2ncc(C(F)(F)F)cc2C(F)(F)F)c2ccc(F)cc2)nn1, the viability, T/C was 82.3%.

The same assay, now with this note: second compound 10 µM; first compound 1 µM; active compounds read low.
On to `COc1cc2cc(C(=O)CCC(=O)O)sc2cc1OC` + Cc1cccc(N(C)C(=O)C2C(O)CCN2c2nc(C)cc(C(F)(F)F)c2C#N)c1, for which the viability, T/C is 89.5%.
With `O=C(Nc1ccc(O)c(NS(=O)(=O)c2ccc(F)cc2)c1)c1ccc(-c2ccccc2)cc1` + Cc1cccc(N(C)C(=O)C2C(O)CCN2c2nc(C)cc(C(F)(F)F)c2C#N)c1, the viability, T/C was 94%.
Same read-out and setting: the same measure for `Nc1ccn(C2OC(CO)C(O)C2(F)F)c(=O)n1` (configuration not stated) + Nc1ccc(C#CCN(C(=O)Cc2ncc(C(F)(F)F)cc2C(F)(F)F)c2ccc(F)cc2)nn1: 84.6%.

Still in this assay, the particulars now being: second compound 10 µM; first compound 3.16 µM; active compounds read low.
Take `COc1cc2cc(C(=O)CCC(=O)O)sc2cc1OC` + Cc1cccc(N(C)C(=O)C2C(O)CCN2c2nc(C)cc(C(F)(F)F)c2C#N)c1: the viability, T/C is 99.4%.
For `O=C(Nc1ccc(O)c(NS(=O)(=O)c2ccc(F)cc2)c1)c1ccc(-c2ccccc2)cc1` + Cc1cccc(N(C)C(=O)C2C(O)CCN2c2nc(C)cc(C(F)(F)F)c2C#N)c1, the viability, T/C was 102%.
For the compound `Nc1ccn(C2OC(CO)C(O)C2(F)F)c(=O)n1` (configuration not stated) + Nc1ccc(C#CCN(C(=O)Cc2ncc(C(F)(F)F)cc2C(F)(F)F)c2ccc(F)cc2)nn1, the viability, T/C was 89.2%.

Still in this assay, the particulars now being: second compound 10 µM; first compound 10 µM; active compounds read low.
On to `COc1cc2cc(C(=O)CCC(=O)O)sc2cc1OC` + Cc1cccc(N(C)C(=O)C2C(O)CCN2c2nc(C)cc(C(F)(F)F)c2C#N)c1, for which the viability, T/C was 90.9%.
Same read-out and setting: to `O=C(Nc1ccc(O)c(NS(=O)(=O)c2ccc(F)cc2)c1)c1ccc(-c2ccccc2)cc1` + Cc1cccc(N(C)C(=O)C2C(O)CCN2c2nc(C)cc(C(F)(F)F)c2C#N)c1 belongs 82.6%.
Still for that read-out and setting: the same measure for `Nc1ccn(C2OC(CO)C(O)C2(F)F)c(=O)n1` (configuration not stated) + Nc1ccc(C#CCN(C(=O)Cc2ncc(C(F)(F)F)cc2C(F)(F)F)c2ccc(F)cc2)nn1: 73.9%.
